Measured values: patent US20260191954A1, “COMPOSITIONS AND METHODS FOR NEOADJUVANT TREATMENT IN CANCER” (INNATE PHARMA, priority 2022, published 2026)
Each block holds one molecule with its values, some of them ahead of it.

Tests used:
H1703 tumor cell line = test: ATP release from squamous NSCLC H1703 tumor cells after chemotherapy (CellTiter-Glo); type: cell-based; conditions: culture supernatant, FIG. 2
Procedure: This experiment aimed as studying ATP release from squamous NSCLC tumor cells following chemotherapy treatment. The squamous NSCLC H1703 tumor cell line was incubated separately with different chemotherapies. The measurement of ATP release was performed 24 h after Cisplatin treatment, 72 h after Carboplatin, 60 h after Oxaliplatin, 48 h after Pemetrexed, 48 h after Gemcitabine, 72 h after 5-FU, 24 h after Paclitaxel and 40 h after Docetaxel. Extracellular ATP release in the culture supernatant was measured with a luminescent-based assay (CellTiter-Glo®) and expressed in Luminescence Arbitrary Unit (AU). Means+/−SD.
Result are shown in FIG. 2, showing ATP release from H1703 tumor cell line (sqNSCLC) following the treatment with different chemotherapies, cisplatin, carboplatin, oxaliplatin, pemetrexed, gemcitabine, 5-Fu, paclitaxel and docetaxel.

OAW42 (CD39+) cells = test: eATP release in OAW42 (CD39+) cells with IPH5201 and docetaxel; type: cell-based; conditions: docetaxel dose range, 30 h, FIG. 3B
Procedure: (§1) OAW42 (CD39+) cells were incubated with 10 or 50 μg/mL of IPH5201 and treated with a dose range of docetaxel. The measure of eATP release was performed 30 h after docetaxel treatment. eATP was measured in the cell culture supernatant with a luminescent-based assay (CellTiter-Glo®) and expressed in Luminescence Arbitrary Unit (AU). Means+/−SD.

[1] = target: T1, recombinant human CD39 protein (huCD39) (Homo sapiens, UniProt P49961); test: eATP release by H1703 (CD39-) cells incubated with recombinant huCD39, with or without IPH5201, then docetaxel; type: cell-based; conditions: H1703 (CD39-) cells; docetaxel 0.1 μM; 40 h; FIG. 3A
T1 sequence (P49961 38-478 limits assumed): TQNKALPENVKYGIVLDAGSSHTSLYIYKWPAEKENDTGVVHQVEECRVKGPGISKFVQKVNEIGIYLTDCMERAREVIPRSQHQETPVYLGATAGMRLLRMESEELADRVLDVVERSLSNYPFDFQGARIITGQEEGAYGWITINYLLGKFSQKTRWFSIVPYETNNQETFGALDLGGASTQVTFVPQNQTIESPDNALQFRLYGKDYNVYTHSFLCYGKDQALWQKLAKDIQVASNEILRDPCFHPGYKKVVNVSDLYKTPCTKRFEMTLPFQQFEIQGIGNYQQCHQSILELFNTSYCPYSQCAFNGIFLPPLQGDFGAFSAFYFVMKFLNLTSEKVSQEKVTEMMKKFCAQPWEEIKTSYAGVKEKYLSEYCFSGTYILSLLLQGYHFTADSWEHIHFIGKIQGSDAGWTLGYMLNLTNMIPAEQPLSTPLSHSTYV
Procedure: H1703 (CD39−) cells were incubated with recombinant human CD39 protein (huCD39) (400 ng/ml) to mimic soluble CD39 in tumor microenvironment with or without IPH5201 (humanized anti-CD39 antibody having the respective heavy and light chain amino acid sequences of SEQ ID NOS: 10 and 11) at 10 μg/mL and then treated with docetaxel (0.1 μM). The measure of extracellular ATP (eATP) release was performed 40 h after docetaxel treatment.
as §1

MC38 cancer cell line = test: MC38 tumor growth in huCD39KI mice (gemcitabine +/- anti-PD-L1 +/- molPH5201); type: in vivo, human CD39 knock-in (huCD39KI) mice; conditions: for tumor growth compared to the control: p<0.001
Procedure: In vivo experiments were performed in human CD39 knock-in (huCD39KI) mice, genetically modified to express human CD39 in place of its murine counterpart mouse CD39. These mice were sub-cutaneously (s.c.) engrafted with the MC38 cancer cell line. Mice bearing established tumors were dosed with isotype control (IC) antibodies, anti-human CD39 antibody (molPH5201, described above), gemcitabine chemotherapy and anti-mouse PD-L1 antibody (an antibody that binds murine PD-L1 having an Fc domain with amino acid substitutions to eliminate binding to mouse Fcγ receptors.
Male and female huCD39KI mice were engrafted subcutaneously (s.c.) with 1×10^6 MC38 cancer cells. Treatments were initiated after mouse randomization. Mice were treated twice a week for two weeks with gemcitabine (25 mg/kg) or PBS (at day 8, 11, 15 and 18 after cell engraftment) and once a week for four weeks with either anti-human CD39 antibody (molPH5201) or the corresponding isotype control (IC) antibody (400 μg/mouse).
Randomization of mice into four groups was performed on day 7 post tumor cell engraftment, at a mean tumor volume of 72 mm^3±27 mm^3 with individual tumor volumes comprised between 37 and 130 mm^3.
(§2) Male and female huCD39KI mice were engrafted s.c. with 1×10^6 MC38. Treatments were initiated after mouse randomization. Mice were treated twice a week for two weeks with gemcitabine (25 mg/kg) or PBS, twice a week for three weeks with either anti-mouse PD-L1 antibody or the corresponding IC antibody (200 μg/mouse) and once a week for four or five weeks depending on the experiment with either anti-human CD39 antibody (molPH5201) or the corresponding IC antibody (400 μg/mouse). Mouse randomization into five groups was performed on day 7 post tumor cell engraftment at a mean tumor volume of 62 mm^3±23 mm^3 with individual tumor volumes comprised between 31 and 117 mm^3.
as §2, with “As in Experiment 1, male” for “Male”, “64” for “62”, “115” for “117”
as §2, with “As in Experiments 1 and 2, male” for “Male”, “engraftment,” for “engraftment”, “74 mm^3±21” for “62 mm^3±23”, “40” for “31”, “121” for “117”
The three experiments were pooled and results are shown in FIG. 9, showing Tumor growth of MC38 tumor in huCD39KI mice post treatment with gemcitabine+/−anti-PD-L1+/−molPH5201. MC38 tumor-bearing huCD39KI mice were randomized on day 7 and then treated as indicated with 25 mg/kg ip of gemcitabine or PBS, 200 μg ip of anti-mouse PD-L1 antibody or corresponding isotype control antibody and with 400 μg iv of molPH5201 or corresponding IC antibody. Graphs show tumor growth in each individual (n=31/group). CR: Complete Response.

[2] = Phase 1 study of IPH5201 +/- durvalumab in advanced solid tumours: safety; type: in vivo; conditions: of 19 patients given IPH5201+durvalumab (1500 mg Q3W)
Procedure: A first-in-human, multicentre, non-randomised, open-label, phase 1 study was conducted in order to assess the safety, efficacy, pharmacokinetics (PK) and pharmacodynamics (PD) of IPH5201±durvalumab (Imfinzi™) in patients with advanced solid tumours. The study consisted of two consecutive dose-escalation parts: • Part 1: Ascending doses of IPH5201 (100, 300, 1000 and 3000 mg) every 3 weeks (Q3W). • Part 2: Ascending doses of IPH5201 (300, 1000 and 3000 mg) and 1500 mg durvalumab Q3W.
PD cohorts enrolled patients with advanced squamous cell lung carcinoma or advanced pancreatic ductal adenocarcinoma in the top two dose levels of Parts 1 and 2. Primary endpoints were safety and tolerability. Key secondary endpoints included preliminary antitumour activity measured by objective response and disease control per RECIST v1.1, PK and immunogenicity. Exploratory endpoints included efficacy measured by duration of response and progression-free survival (PFS) per RECIST v1.1, overall survival and assessment of biomarkers.
Key inclusion criteria were: • Adults aged ≥18 years. • Histologically or cytologically confirmed advanced solid tumours. • At least one measurable lesion per RECIST v1.1. • Refractoriness to standard therapy or disease for which no standard therapy exists. • Eastern Cooperative Oncology Group Performance Status of 0 or 1. • Archival or fresh tumour sample. • Key exclusion criteria were: • Previous treatment with any agents targeting CD73, CD39, or adenosine receptors. • Treatment with any conventional or investigational anticancer therapy within 21 days of the first planned dose. • Active or prior autoimmune or inflammatory disorders within the past 5 years. • Cardiac and vascular criteria including presence of acute coronary syndrome or thromboembolic events within 6 months prior to enrolment, congestive heart failure, serious cardiac arrhythmia requiring medication, or uncontrolled hypertension. • Untreated metastases to the central nervous system.
Overall, 57 patients received treatment (IPH5201, n=38; IPH5201+durvalumab, n=19). […] Treatment-emergent adverse events (TEAEs) occurred in 96.5% of patients; 40.4% had grade ≥3 TEAEs. […] Treatment-related adverse events (TRAEs) occurred in 66.7% of patients (37/57 (64.9%) related to IPH5201; 11/19 (57.9%) related to durvalumab). […] The most common TRAEs were infusion-related reactions (21.1%), fatigue (17.5%), nausea, arthralgia, tumour pain and pruritus (8.8% each). […] Maximum tolerated dose (MTD) was not reached.

Molecule: O=c1[nH]cc(F)c(=O)[nH]1 [5-Fu, 5-FU]
ATP release (H1703 tumor cell line; 72 h after 5-FU): induced significant ATP release

Molecule: N.N.O=C([O-])C1(C(=O)[O-])CCC1.[Pt+2] [carboplatin]
ATP release (H1703 tumor cell line; 72 h after Carboplatin): induced significant ATP release

Molecule: N.N.[Cl][Pt][Cl] [cisplatin]
ATP release (H1703 tumor cell line; 24 h after Cisplatin treatment): induced significant ATP release

extracellular ATP (eATP) release [1]: induced strong release of eATP
Molecule: CC(=O)O[C@@]12CO[C@@H]1C[C@H](O)[C@@]1(C)C(=O)[C@H](O)C3=C(C)[C@@H](OC(=O)[C@H](O)[C@@H](NC(=O)OC(C)(C)C)c4ccccc4)C[C@@](O)([C@@H](OC(=O)c4ccccc4)[C@H]21)C3(C)C [docetaxel, reference compound]
eATP release (OAW42 (CD39+) cells): at best a modest release of eATP
ATP release (H1703 tumor cell line; 40 h after Docetaxel): induced significant ATP release

Molecule: Nc1ccn([C@@H]2O[C@H](CO)[C@@H](O)C2(F)F)c(=O)n1 [gemcitabine, reference compound]
tumor growth compared to the control (MC38 cancer cell line; Experiment 1 (FIG. 6)): significantly slowed down tumor growth
tumor growth compared to the control (MC38 cancer cell line; Experiment 2 (FIG. 7)): significantly slowed down tumor growth
tumor growth compared to the control (MC38 cancer cell line; Experiment 3 (FIG. 8)): significantly inhibited tumor growth
tumor growth compared to the control group (MC38 cancer cell line; gemcitabine +/- molPH5201 experiment (FIG. 5), gemcitabine 25 mg/kg, molPH5201 400 μg/mouse, p<0.001 where significant): drastically and significantly slowed down tumor growth
ATP release (H1703 tumor cell line; 48 h after Gemcitabine): induced significant ATP release

Molecule: O=C1[O][Pt]2([NH][C@@H]3CCCC[C@H]3[NH]2)[O]C1=O [oxaliplatin]
ATP release (H1703 tumor cell line; 60 h after Oxaliplatin): induced significant ATP release

Molecule: CC(=O)O[C@H]1C(=O)[C@@]2(C)[C@H]([C@H](OC(=O)c3ccccc3)[C@]3(O)C[C@H](OC(=O)[C@H](O)[C@@H](NC(=O)c4ccccc4)c4ccccc4)C(C)=C1C3(C)C)[C@]1(OC(C)=O)CO[C@@H]1C[C@@H]2O [paclitaxel]
ATP release (H1703 tumor cell line; 24 h after Paclitaxel): induced significant ATP release

Molecule: Nc1nc2[nH]cc(CCc3ccc(C(=O)N[C@@H](CCC(=O)O)C(=O)O)cc3)c2c(=O)[nH]1 [pemetrexed]
ATP release (H1703 tumor cell line; 48 h after Pemetrexed): induced significant ATP release

Molecule: durvalumab [reference compound]
patients with TRAEs related to durvalumab [2]: 57.9%
patients with TRAEs related to durvalumab, count [2]: 11/19
